We go through 2 substances from patent US10689380B1, “Crystalline forms of valbenazine ditosylate” (Farmhispania S.A., priority 2019, dated 2020).

The nature of series [1]: Dynamic Vapour Sorption (DVS) analysis. In kind it is physicochemical. As to conditions: 25° C., first cycle. The method, then:
(§1) As used herein, DVS means Dynamic Vapour Sorption Analysis. Unless stated otherwise, DVSs were performed according to the following equipment and conditions: DVS-1000 instrument by Surface Measurement Systems was used. Samples were prepared by transferring them into an aluminum crucible and loading this into the DVS. A method utilizing two cycles (0% to 90% RH) and (90% to 0% RH) was run. The equilibrium condition for each step was set to a mass constancy of ±0.001% over 60 min and a maximum time limit of 1440 min for each step. This method was undertaken at 25° C.

Series [2] in a line: Stability against temperature stress as indicated by DSC and DVS data. Format: physicochemical. Here is the method:
as §1, with “C. As used herein, DSC means Differential Scanning calorimetry Analysis. Unless stated otherwise, DSCs were performed according to the following equipment and conditions: DSC 822e Mettler Toledo. Crucible: Aluminum crucible with a capacity of 40 μL and with hole the lid. Gas: Dry nitrogen 50 mL/min. Method standard: Heating from 30° C. to 300° C. at a rate of 10° C./min.” for “C.”
For orientation: Differential scanning calorimetry records heat flow against a reference as temperature is scanned.

For the substance valbenazine ditosylate [Form D], the “polymorphic change associated with the sorption/desorption phenomenon in DVS, based on XRPD analysis” value in series [1] (70-80% relative humidity) was “transformation to polymorphic form II”. Also, in series [1] (at 70% relative humidity), the “water sorption by the sample (DVS)” value is “approximately 6.0%”. In addition, the “water desorption by the sample (DVS)” value in series [1] (at 80% relative humidity) is 4.0%.

As to valbenazine ditosylate [Form E], the “water sorption by the sample (DVS)” value in series [1] (at 90% relative humidity) is “approximately 1.4%”. In series [2], the “stability against temperature stress for formulation into an oral solid dosage form” value is reported as “stable against temperature stress”.
